{
  "source": "patent US9072770B2",
  "about": "“Aqueous extracts of Anoectochilus spp. kinsenoside and pharmaceutical compositions useful for hepatoprotection” (CHINA MEDICAL UNIVERSITY, priority 2007, dated 2015)",
  "test_system": "BALB/c normal liver (BNL) cells",
  "test": "Hydrogen peroxide cytotoxicity assay in BNL cells",
  "type": "cell-based, BALB/c mouse",
  "conditions": "then H2O2 2 hours, control 0.69",
  "experimental": "BALB/c normal liver (BNL) cells were purchased from Bioresources Collection and Research Center (Hsinchu, Taiwan). Cell lines were grown in DMEM (Dulbecco's modified Eagle's medium) with 50 IU/mL penicillin, 50 μg/mL streptomycin, 50 IU/mL amphotericin B and 10% fetal bovine serum. For cytotoxicity assays, cells (5×10^3 cells/well) were plated into 96-well culture plates and allowed to attach overnight. The medium was replaced with fresh medium (as control) or with various concentrations of AFEW, AFEW-1 or kinsenoside for 16 hours. The cells were then washed with PBS and further treated with various doses of hydrogen peroxide (0.125-4.00 μM) for 2 hours. After H2O2 cytotoxic treatment, the percentage of viable cells was determined using a CellTiter 96 Aqueous Non-Radioactive Cell Proliferation Assay kit (Promega, Madison, Wis., USA). Reagent solution (20 μt) was added to each well and incubated at 37° C. in humidified 5% CO2 for 1 hour. Then, the absorbance was measured at 490 nm using a 96-well plate reader (Multiskan Spectrum, Labsystem, Thermo Electron Corporation, Finland).\nData from in vivo experiments were treated by one-way analysis of variance and Dunnett's test was applied. The significance level was set at p[…]00.05. […]",
  "note": "Marks after values point to notes of the source that are not given here.",
  "data": [
    {"compound": "O=C1C[C@@H](OC2OC(CO)C(O)C(O)C2O)CO1", "note": "(stereo partly drawn) [Kinsenoside, 3-(R)-3-β-D-glucopyranosyloxybutanolide]", "values": [
      {"measurement": "H2O2 LD50 (95% confidence limits)", "setting": "pretreatment 20 μg/mL for 16 hours", "result": "0.81 (0.74-0.88)^a μM"},
      {"measurement": "H2O2 LD50 (95% confidence limits)", "setting": "pretreatment 40 μg/mL for 16 hours", "result": "1.17 (1.01-1.36)^a μM"}
    ]}
  ]
}
